# Paper PMC9100072, “Modulation of the MOP Receptor (μ Opioid Receptor) by Imidazo[1,2-a]imidazole-5,6-Diones: In Search of the Elucidation of the Mechanism of Action” (Molecules, 2022)
# “And” between values parts separate entries of the source, which are not always exact repeats. Equal entries are not always repeated. Where two headings read alike, the source gives them in different places.
# Experiments:
# [1] = target: T1, human μ-opioid receptor (Homo sapiens, UniProt P35372); test: biochemical; assay type: binding; details: for binding to the μ-opioid receptor: tested concentrations 10^−5–10^−10 M
# T1 construct: purchased Perkin Elmer ES-542-M400UA; host or cells: CHO-K1 cells, stably transfected (membranes)
# T1 sequence (P35372 whole entry): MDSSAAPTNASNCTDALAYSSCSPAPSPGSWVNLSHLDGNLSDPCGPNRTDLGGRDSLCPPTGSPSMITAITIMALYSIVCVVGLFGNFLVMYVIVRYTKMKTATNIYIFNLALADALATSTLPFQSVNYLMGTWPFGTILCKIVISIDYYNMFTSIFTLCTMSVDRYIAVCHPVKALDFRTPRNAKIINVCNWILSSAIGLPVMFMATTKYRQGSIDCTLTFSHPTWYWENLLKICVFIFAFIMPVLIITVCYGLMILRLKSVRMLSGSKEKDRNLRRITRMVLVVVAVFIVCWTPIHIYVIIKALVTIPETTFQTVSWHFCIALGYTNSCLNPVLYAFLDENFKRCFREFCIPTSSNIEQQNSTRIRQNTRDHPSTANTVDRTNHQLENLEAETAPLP
# Description: The reaction was terminated by rapid filtration through GF/B filter mate presoaked with 0.5% polyethyleneimine for 30 min. […] Data were fitted to a one-site curve-fitting equation with Prism 6 (GraphPad Software), and Ki values were estimated from the Cheng–Prusoff equation.
# [2] = target: T2, human μ-opioid (OP3) receptor (Homo sapiens, UniProt P35372); test: cell-based; assay type: cell-based; parameters: Emax: dose or concentration left out as unconfirmed
# T2 sequence (P35372 whole entry): as above
# [3] = target: T2, human μ-opioid (OP3) receptor; test: cell-based; details: for Emax at 0.03 µM / Emax: U2OS; for Emax at 0.03 µM: read-out: Emax% (EC87: 30 nM) Antagonist Mode
# [4] = CHO-K1; read-out: Emax% Agonist Mode
# [5] = CHO-K1; read-out: Emax% Antagonist Mode
# [6] = read-out: Emax% (EC20: 1 nM) Antagonist Mode
# [7] = CHO-K1, read-out: Emax% Antagonist Mode
Compound,binding to the μ-opioid receptor [1],"Emax [2, 4] [%]","Emax [2, 5] [%]","Emax at 0.0046 µM [2, 5] [%]","Emax at 0.03 µM [2, 5] [%]",Emax at 0.03 µM [3] [%],"Emax [3, 6] [%]",Emax ([3]; read-out: Emax% Agonist Mode) [%],Emax% Antagonist Mode [2],melting point [°C],other results
O=C1N=C2N(CCN2c2ccccc2)C1=O [1a],No binding,15,6,4,9,22,92,8,–,–,–
Cc1cccc(N2CCN3C(=O)C(=O)N=C32)c1 [1b],No binding,13,10,6,–,12,94,13,5%,220 to 223,–
"Cc1ccc(N2CCN3C(=O)C(=O)N=C32)cc1 [1c, 1-(4-methylphenyl)-2,3-dihydro-1H-imidazo[1,2-a]imidazole-5,6-dione]",No binding,13,35,4,–,12,97,15,–,236 to 238,"pharmacological classification in words ([2]; from cAMP functional data (with binding data for the modulator conclusion)): weak antagonist properties; pharmacological classification in words ([2]; from cAMP functional data (with binding data for the modulator conclusion); listed as 1-(4-methylphenyl)-2,3-dihydro-1H-imidazo[1,2-a]imidazole-5,6-dione): negative allosteric modulator; Kb ([2]; pKb Range Antagonist Mode): 0.661 nM; Kb ([2]; read-out: pKb Range Antagonist Mode (converted)): 8.91 nM"
O=C1N=C2N(CCN2c2cccc(Cl)c2)C1=O [1d],No binding,13,22,4,5,9,92,15,–,279 to 280,–
O=C1N=C2N(CCN2c2ccc(Cl)cc2)C1=O [1e],No binding,13,8,12,5,19,89,14,3%,–,–
"C[C@@H](O)[C@H](NC(=O)[C@H]1NC(=O)[C@H]([C@@H](C)O)NC(=O)[C@H](CCCNC(=N)N)NC(=O)[C@@H](Cc2c[nH]c3ccccc23)NC(=O)[C@H](Cc2ccc(O)cc2)NC(=O)[C@@H](NC(=O)[C@H](N)Cc2ccccc2)CSSC1(C)C)C(N)=O [CTAP, {d-Phe}-Cys-Tyr-{d-Trp}-Arg-Thr-{Pen}-Thr-NH2 (disulfide bridge: Cys2-Pen7), reference compound]",–,–,–,–,–,–,–,–,–,–,"Ki [1]: 4.9 nM; Emax ([2]; CHO-K1, read-out: Emax% Agonist Mode): 12%; Emax [2, 7]: 100%; Emax at 0.0046 µM [2, 7]: 100%; Emax at 0.03 µM [2, 7]: 116%"
"C[C@@H](NC(=O)[C@@H](N)Cc1ccc(O)cc1)C(=O)NCC(=O)N(C)[C@@H](Cc1ccccc1)C(=O)NCCO [DAMGO, (2S)-2-[[2-[[(2R)-2-[[(2S)-2-Amino-3-(4-hydroxyphenyl)propanoyl]-amino]-propanoyl]amino]acetyl]-methylamino]-N-(2-hydroxyethyl)-3-phenylpropanamide, reference compound]",–,–,–,–,–,–,–,–,2%,–,"EC20 of DAMGO [2]: 1 nM; EC80 of DAMGO [2]: 18 nM; EC87 of DAMGO [2]: 30 nM; Emax [2, 7]: 0%; Emax at 0.0046 µM [2, 7]: 0%"
"COC(=O)/C=C/C(=O)N[C@@H]1CC[C@@]2(O)[C@H]3Cc4ccc(O)c5c4[C@@]2(CCN3CC2CC2)[C@H]1O5 [ß-FUNALTREXAMINE, beta-funaltrexamine, reference compound]",–,–,–,–,–,–,–,–,66% and 40% and 46% and 42%,–,"pKi Range [1]: 9.13 (9.10–9.15); Emax% Agonist Mode [2]: 17%; Emax% (EC20: 1 nM) Antagonist Mode [3]: 122%; Emax% (EC87: 30 nM) Antagonist Mode [3]: 127%; Emax% Agonist Mode ([3]; β-arrestin recruitment, fraction of effect of DAMGO): 10%"
